The IC50 is the point on the concentration scale where inhibition reaches its midpoint.

One assay deals with T1, OX1 (Homo sapiens, UniProt O43613).
T1 construct: expressed in transfected cells; host or cells: CHO (CHO-OX1)
T1 sequence (O43613 1-425): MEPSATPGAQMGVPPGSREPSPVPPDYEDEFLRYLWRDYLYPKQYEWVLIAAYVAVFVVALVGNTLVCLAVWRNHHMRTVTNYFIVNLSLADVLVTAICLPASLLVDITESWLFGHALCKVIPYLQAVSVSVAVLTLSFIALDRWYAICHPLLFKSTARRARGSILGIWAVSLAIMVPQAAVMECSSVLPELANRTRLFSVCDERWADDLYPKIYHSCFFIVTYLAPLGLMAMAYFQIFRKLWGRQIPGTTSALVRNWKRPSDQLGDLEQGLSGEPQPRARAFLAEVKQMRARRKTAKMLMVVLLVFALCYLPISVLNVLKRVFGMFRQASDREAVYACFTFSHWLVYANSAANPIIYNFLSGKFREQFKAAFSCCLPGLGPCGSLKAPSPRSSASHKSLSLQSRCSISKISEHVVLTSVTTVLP
As to the kind of experiment: Orexin receptor cell-based functional assay, [Ca2+]i by FLIPR, CHO-OX1 cells. The conditions noted are these: FLIPR calcium, antagonism of EC90 of [OX], read-out: OXI, IC50.

For a further assay, the target named is T2, OX2 (Homo sapiens, UniProt O43614).
T2 construct: expressed in transfected cells; host or cells: CHO (CHO-OX2)
T2 sequence (O43614 1-444): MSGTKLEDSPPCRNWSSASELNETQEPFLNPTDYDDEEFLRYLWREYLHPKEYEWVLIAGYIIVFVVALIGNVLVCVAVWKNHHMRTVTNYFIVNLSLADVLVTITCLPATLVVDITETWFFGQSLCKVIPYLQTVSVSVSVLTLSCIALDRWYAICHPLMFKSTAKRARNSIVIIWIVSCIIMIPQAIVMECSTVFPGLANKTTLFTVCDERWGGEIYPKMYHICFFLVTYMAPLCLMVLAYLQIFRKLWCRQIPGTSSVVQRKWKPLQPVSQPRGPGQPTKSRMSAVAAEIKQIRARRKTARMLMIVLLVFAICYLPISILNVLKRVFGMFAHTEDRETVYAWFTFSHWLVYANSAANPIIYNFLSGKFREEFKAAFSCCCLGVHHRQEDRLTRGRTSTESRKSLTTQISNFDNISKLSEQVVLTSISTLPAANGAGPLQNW
In words: Orexin receptor cell-based functional assay, [Ca2+]i by FLIPR, CHO-OX2 cells. As to conditions: FLIPR calcium, antagonism of EC90 of [OX]. Summed up:
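CHO cells expressing human OX1 or OX2 (20,000/well, grown overnight) were loaded with Calcium6 dye plus 2.5 mM probenecid for 2 h at 37 °C, then preincubated 30 min with compound (0.1 nM–10 µM). FLIPR fluorescence (ex 488/em 540 nm) was tracked before and after an EC90 orexin challenge.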

As for `C[C@@H]1CC(F)(F)CN(C(=O)c2nn(C)cc2-c2ccc(Cl)cc2)[C@@H]1CNc1cnc(C(F)(F)F)cn1` [Compound 129, (4-(4-chlorophenyl)-1-methyl-1H-pyrazol-3-yl)((2S,3R)-5,5-difluoro-3-methyl-2-(((5-(trifluoromethyl)pyrazin-2-yl)amino)methyl)piperidin-1-yl)methanone], the IC50 on OX1 came to 4 nM; at OX2 it was 3.5 µM.

Consider `Cc1nc(C(=O)N2CC(F)(F)C[C@@H](C)[C@H]2CNc2ccc(C(F)(F)F)cn2)c(-c2ccc(F)cc2)s1` [Compound 185, ((2S,3R)-5,5-difluoro-3-methyl-2-(((5-(trifluoromethyl)pyridin-2-yl)amino)methyl)piperidin-1-yl)(5-(4-fluorophenyl)-2-methylthiazol-4-yl)methanone], for which the IC50 at OX1 is 2 nM; at OX2 it was over 5 µM.

Source of the values: US12084437B2, “Halo-substituted piperidines as orexin receptor modulators” (AstraZeneca AB, priority 2016, dated 2024).
